In general, CC50 refers to the concentration at which the toxic effect on the cells reaches its halfway point.

pEC50: −log10 of the molar value. Like-named read-outs stand apart in the source and are kept apart here.

From patent publication US20250188091A1, “PYRIDONE COMPOUND HAVING INTEGRASE INHIBITORY ACTIVITY AND PHARMACEUTICAL USE THEREOF” (priority 2021, published 2025) come the findings set out here.

What all share (format): cell-based
Data set [1] deals with human immunodeficiency virus type 1 IIIB strain (HIV-1IIIB). Kind of data set: Cell protection assay against HIV infection (MT-4 cells, XTT). The conditions noted are these: for CC50/EC50: MT-4 cells, HIV-1IIIB. On the procedure: The protective effect of the test compound on MT-4 cells infected by human immunodeficiency virus type 1 IIIB strain (HIV-1IIIB) at different concentrations was evaluated.
The test compound was dissolved in DMSO at a concentration of 10 mM and stored at −20° C.
2) Test of the anti-HIV-1 IIIB infection activity of the compound: A starting concentration of 10 nM was used, and five serial five-fold dilutions were carried out on the compound. Each compound was present in the test medium at a concentration 2 folds of the final desired test concentration. 100 microliters (100 μL) of the solution of each concentration was added to triplicate wells for efficacy evaluation, and each concentration was added one well for colorimetric evaluation. AZT was purchased from Sigma Aldrich (St. Louis, MO, USA), and evaluated as a control compound in the antiviral assay.
(§1) Cell culture: MT-4 cells were passaged in a T-75 flask before use in the antiviral assay. On the day before the assay, cells were passaged in aliquots at a 1:2 ratio to ensure that they were in the exponential growth phase at the time of infection. Total cells and viable cells were quantified using a hemocytometer and trypan blue dye. The proportion of viable cells used for the assay was greater than 95%. The cells were resuspended in tissue culture medium at 5×10^4 cells per milliliter, and the resulting suspension was added to a drug-containing microtiter plate in a volume of 50 μL.
Virus preparation: The virus used for this assay was lymphotropic virus strain HIV-1IIIB. The viruses were amplified in CEM-SS cells for the preparation of virus stock solution. The pre-titered virus aliquot tube was taken from the refrigerator (−80° C.), and slowly thawed to room temperature in a biosafety cabinet. The viruses were diluted in the tissue culture medium. 50 μl of the diluted virus would produce 85% to 95% cell killing 6 days after infection. 50 μL of the diluted virus was added immediately to the microtiter plate containing cells and drugs.
(§2) Evaluation of the efficacy and toxicity of the compound with XTT: After culturing for six days in a 37° C., 5% CO2 incubator, tetrazolium dye XTT (2,3-bis(2-methoxy-4-nitro-5-sulfophenyl)-5-[(phenylamino)carbonyl]-2H-tetrazolium hydroxide) was added to the cell culture plate to conduct the test. The XTT solution was a 1 mg/ml RPMI1640 stock solution prepared on the same day. Phenazine methyl sulfate (PMS) solution at a concentration of 0.15 mg/ml was prepared in PBS, and stored in the dark at −20° C. XTT/PMS stock solution was prepared before use by adding 40 μl of PMS per milliliter of XTT solution. […] of XTT/PMS was added to each well of the plate, and the plate was re-incubated for 4 hours at 37° C. The plate was sealed with adhesive plate sealant, and gently shaked or inverted several times to mix the soluble formazan product. The absorbance was read at 450/650 nm.
For orientation: Tetrazolium assays rely on reduction of a dye to a coloured formazan, in cell work by metabolically active cells.

The subject of the next data set is MT-4 cells. The experiment in a line: Test of cytotoxicity of the compound (MT-4 cells, XTT). The conditions noted are these: 6 days. On the procedure:
(§3) 1) Test of cytotoxicity of the compound: The test compound was evaluated using a starting concentration of 100 nM and five serial half-log dilutions. Each compound was present in the test medium at a concentration 2 folds of the final desired test concentration. The compound was diluted to 1 mM in DMSO. The compound was then diluted to 200 nM in a drug dilution tube containing 998 μL of test medium (adding 2 μL of 1 mM stock). […] of the 200 nM solution was transferred into 680 μL of the test medium (half-log dilution), and a total of five serial dilutions were carried out. 100 microliters (100 μL) of the solution of each concentration was added to duplicate wells for cytotoxicity evaluation, and each concentration was added to one well for colorimetric evaluation.
as §1, §2

Data set [2] has as its system HIV-1 subtype A RW/92/009. Kind of data set: Inhibitory activity against clinical HIV-1 strain RW/92/009 in PBMC. The conditions noted are these: RW/92/009, human PBMC, 7 days, reverse transcriptase activity in supernatant. The method, then: (§4) Preparation of virus: Clinical HIV-1 virus strains (Table 3) were obtained from the US NIH AIDS Research and Reference Reagent Library. PBMC were extracted from three fresh blood samples that were HIV and HBV seronegative, mixed and cultured, and PHA-P (phytohemagglutinin) was added to stimulate activation. The cells and virus were incubated at 37° C./5% CO2, and the cell culture supernatant after infection was collected and stored frozen at −80° C. Each viral titer was titrated in pooled PBMCs from three donors.
(§5) Assay of antiviral activity of compounds: Frozen PBMCs were resuspended in fresh culture medium (1×10^6 cells/mL), and added to a round-bottom 96-well plate ([…]). 100 μl of culture medium containing 2 times the final concentration of the compound was added to each well, and then 50 μL of virus solution was added (the final infection dose was MOI=0.002). After 7 days of culture, the reverse transcriptase activity in the supernatant was determined to evaluate HIV-1 replication. At the same time, a 96-well culture plate with only compounds and cells was prepared for the assay of compound cytotoxicity.

Data set [3] deals with HIV-1 subtype C MW/93/959. The experiment in a line: Inhibitory activity against clinical HIV-1 strain MW/93/959 in PBMC. The conditions noted are these: MW/93/959, human PBMC, 7 days, reverse transcriptase activity in supernatant. On the procedure: as §4, §5
For data set [4], the system named is HIV-1 subtype D UG/92/001. Kind of data set: Inhibitory activity against clinical HIV-1 strain UG/92/001 in PBMC. The conditions noted are these: UG/92/001, human PBMC, 7 days, reverse transcriptase activity in supernatant. On the procedure: as §4, §5
Data set [5] can be described thus: Test of cytotoxicity of the compound (MT-4 cells, XTT). The conditions noted are these: human. On the procedure: as §3, §1, §2
The test system of data set [6] is WT (wild type) pseudovirus. Kind of data set: Pseudovirus-based assay of anti-HIV-1 activity, WT strain. Conditions: HEK-293T, 72 h. On the procedure: (§6) The inhibitory activity against pseudoviruses containing common clinical mutation sites of HIV-1 integrase (G140S/Q148R, Q148R/N155H, E138K, Q148H, R263K and Y143R/Q148H) was determined.
(§7) Preparation of pseudovirus: Using the lentiviral plasmid pNL4-3-Luc-RE (HedgehogBio) as the backbone, an integrase point mutation plasmid was constructed. HEK293T cells (ATCC) were seeded in a 6-well plate at 5×10^5 cells per well. After 24 hours, when the cell density reached 60% to 80%, transfection was performed. pNL4-3-Luc-R-E- or pNL4-3-Luc-R-E--IN-mutant plasmid and lentivirus packaging plasmid pMD2.G (Beijing Zoman Bio) were added to the transfection reagent in a certain proportion. Cell transfection was performed according to the instructions of transfection reagent PEI25K (Maokang Biotechnology). After 48 hours, the supernatant was collected, centrifuged at 3000 rpm for 5 minutes, filtered with a 0.45 μm microporous membrane, aliquoted, and stored at −80° C. for later use. In HEK293T cells, the pseudovirus titer was determined based on luciferase activity.
(§8) Determination of antiviral activity of compounds: In a 96-well V-bottom plate, the compound to be tested was diluted with DMSO semi-logarithmically, and a compound solution 4 times the final concentration was prepared for later use. According to the results of different virus titrations, the virus was diluted with complete culture medium for later use. HEK293T cells were digested with trypsin to obtain a cell suspension of 2×10^5/mL. 50 µl of compound diluent, 50 µl of virus diluent and 100 µl of cell suspension were added successively to a 96-well flat-bottomed plate. The final concentration of the compound was 1000 nM to 0.1 nM. The 96-well plate was incubated in a 37° C., 5% CO2 incubator. After 72 hours, 100 µL of culture supernatant was pipetted out carefully from each well of the 96-well plate, 25 µL of Steady-Glo detection reagent (Promega, Cat #E2550) was added to each well in the dark, and then assayed on a machine (Tecan, Type #Spark).

For data set [7], the system named is HIV-1 integrase E138K pseudovirus. The experiment in a line: Pseudovirus-based assay of anti-HIV-1 activity, E138K strain. The conditions noted are these: HEK-293T, 72 h. The method, then: as §6, §7, §8
Data set [8] deals with HIV-1 integrase Q148H pseudovirus. Kind of data set: Pseudovirus-based assay of anti-HIV-1 activity, Q148H strain. Conditions: HEK-293T, 72 h. The method, then:
as §6, §7, §8

Data set [9] concerns HIV-1 integrase R263K pseudovirus. The experiment in a line: Pseudovirus-based assay of anti-HIV-1 activity, R263K strain. Conditions: HEK-293T, 72 h. On the procedure:
as §6, §7, §8

In data set [10] the test system is HIV-1 integrase Y143R/Q148H pseudovirus. The experiment in a line: Pseudovirus-based assay of anti-HIV-1 activity, Y143R/Q148H strain. Conditions: HEK-293T, 72 h. On the procedure: as §6, §7, §8
For data set [11], the system named is HIV-1 integrase G140S/Q148R pseudovirus. Kind of data set: Pseudovirus-based assay of anti-HIV-1 activity, G140S/Q148R strain. The conditions noted are these: HEK-293T, 72 h. The method, then:
as §6, §7, §8

The test system of data set [12] is HIV-1 integrase Q148R/N155H pseudovirus. The experiment in a line: Pseudovirus-based assay of anti-HIV-1 activity, Q148R/N155H strain. Conditions: HEK-293T, 72 h. On the procedure: as §6, §7, §8

Take `Cc1cn([C@H]2C[C@H](N=[N+]=[N-])[C@@H](CO)O2)c(=O)[nH]c1=O` [AZT]: the pEC50 is 8.70 in [1] (MT-4 cells infected by HIV-1IIIB, 6 days, XTT, read-out: EC50); 8.45 in data set [2] (read-out: hPBMC/HIV-1 EC50); 9.51 in [3] (read-out: hPBMC/HIV-1 EC50); 8.40 in [4] (read-out: hPBMC/HIV-1 EC50). The CC50/EC50 in [1] is reported as >250. In addition, the CC50 with MT-4 cells is > 500 nM. Also, the EC90 turned out to be 75.5 nM in data set [2] (read-out: hPBMC/HIV-1 EC90), 38.6 nM in data set [3] (read-out: hPBMC/HIV-1 EC90) and 62 nM in data set [4] (read-out: hPBMC/HIV-1 EC90).

`O=C(NCc1ccc(F)cc1F)c1cn2c(c(O)c1=O)C(=O)N1[C@@H](C3CC3)CO[C@@H]1C2` [Compound 1]: the pEC50 is 8.51 in [1] (Human immunodeficiency virus 1, IIIB, MT4, 144 h); 8.48 in data set [6]; 8.29 in data set [7]; 7.80 in data set [8]; 8.19 in data set [9]; 7.67 in data set [10]. The pEC50 in [11] is 6.61; in data set [12], 6.21. Also, the CC50/EC50 in data set [1] was >32.1. For the same molecule, the CC50 at 6 days in data set [5] was > 100 nM. Further, the EC90 is 29.1 nM in data set [6]; 27.1 nM in [7]; 105 nM in data set [8]; 58.3 nM in data set [9]; 193 nM in [10]; > 1000 nM in [11]. The EC90 in data set [12] is > 1000 nM.

Consider `Cc1nnc(C(=O)NC(C)(C)c2nc(C(=O)NCc3ccc(F)cc3)c(O)c(=O)n2C)o1` [Raltegravir, raltegravir], for which the pEC50 in data set [6] was 8.26; in data set [7] it was 8.09; in data set [8], 6.67; in data set [9], 8.15; in data set [10], < 6.00; in [11] it was < 6.00. Further, the pEC50 in data set [12] is < 6.00. The EC90 in [6] was 60.7 nM; in data set [7], 46.2 nM; in data set [8], > 1000 nM; in data set [9], 68 nM; in data set [10], > 1000 nM; in data set [11], > 1000 nM. Also, the EC90 in data set [12] was > 1000 nM.
